Consider three compounds from patent US4062959A, “N-methyl-imidazole derivatives for treating mycotic infections” (Bayer Aktiengesellschaft, priority 1970, dated 1977).

Common to all, as to test: Anti-mycotic action in vitro (MIC, serial dilution test)
What all share (type): cell-based

The test system of one assay is Microsporon felineum. The conditions noted are these: 28° C, 24 to 96 hours; Sabouraud's test medium (Dermatophytes); dilution series 100-40-20-10-4-1; read-out: Minimal inhibitory concentration (MIC), Microsporon felineum. As for the experimental part:
(§1) The Table summarises the anti-mycotic actions in vitro of several preparations towards several species of fungi:
(§2) The MIC determination was carried out in a serial dilution test, in the dilution series 100-40-20-10-4-1 γ/ml of substrate. The following were used as nutrient substrates:
(§3) a. for Dermatophytes: Sabouraud's test medium
(§4) The incubation temperature was 28° C, and the incubation time was 24 to 96 hours.

Assay [1] relates to Trichophyton mentagrophytes. The conditions noted are these: 28° C, 24 to 96 hours, Sabouraud's test medium (Dermatophytes), dilution series 100-40-20-10-4-1, read-out: Minimal inhibitory concentration (MIC), Trichophyton mentagrophytes. On the procedure: as §1, §2, §3, §4
The subject of another assay is Candida albicans. The conditions noted are these: 28° C, 24 to 96 hours, meat water-glucose-bouillon (yeasts), dilution series 100-40-20-10-4-1, read-out: Minimal inhibitory concentration (MIC), Candida albicans. On the procedure: as §1, §2
b. for yeasts: meat water -- glucose -- bouillon.
as §4

A further assay relates to Aspergillus niger. The conditions noted are these: 28° C, 24 to 96 hours, dilution series 100-40-20-10-4-1, read-out: Minimal inhibitory concentration (MIC), Aspergillus niger. On the procedure: as §1, §2, §4
For a further assay, the system named is Penicillium commune. The conditions noted are these: 28° C, 24 to 96 hours, dilution series 100-40-20-10-4-1, read-out: Minimal inhibitory concentration (MIC), Penicillium commune. On the procedure:
as §1, §2, §4

Converted amounts (≈) assume the structure as drawn.

For the compound `c1ccc(C(c2ccccc2)(c2cncnc2)n2ccnc2)cc1` [Example 1, Diphenyl-pyrimid-5-yl-imidazol-1-yl-methane], the MIC with Microsporon felineum is 40 µg/mL (≈ 128 µM); in assay [1] it was 4 µg/mL (≈ 12.8 µM); in the assay on Candida albicans, 40 µg/mL (≈ 128 µM); with Aspergillus niger it was 10 µg/mL (≈ 32 µM); in the assay on Penicillium commune, 100 µg/mL (≈ 320 µM).

Take `c1ccc(C(c2ccccc2)(c2cnccn2)n2ccnc2)cc1` [Example 2, Diphenyl-pyrazyl-imidazol-1-yl-methane]: the MIC in the assay with Microsporon felineum worked out at 10 µg/mL (≈ 32 µM); in assay [1], 4 µg/mL (≈ 12.8 µM); in the assay with Candida albicans, 40 µg/mL (≈ 128 µM); with Aspergillus niger it was 10 µg/mL (≈ 32 µM); with Penicillium commune, 40 µg/mL (≈ 128 µM).

Take `Fc1ccc(C(c2ccccc2)(c2cnccn2)n2ccnc2)cc1` (stereo not drawn) [Example 3, 4-Fluorophenyl-phenyl-pyrazyl-imidazol-1-yl-methane]: the MIC was 4 µg/mL (≈ 12.1 µM) with Microsporon felineum; < 1 µg/mL in assay [1]; 4 µg/mL (≈ 12.1 µM) with Candida albicans; 4 µg/mL (≈ 12.1 µM) with Aspergillus niger; 4 µg/mL (≈ 12.1 µM) in the assay on Penicillium commune.
